Results taken from paper PMC10587869, “Deciphering Structural Determinants Distinguishing Active from Inactive Cell-Penetrating Peptides for Cytosolic mRNA Delivery” (Bioconjugate Chemistry, 2023).
Positions of bridges follow the written chain, without caps; N, C: chain ends. No end group written: not given here.

Key:
[1] = test system: MC3T3 cells; test: eGFP protein expression after mRNA transfection, live-cell confocal microscopy; assay type: cell-based, murine; conditions: N/P 3, eGFP mRNA, 24 h post-transfection
Experimental: (§1) Peptide-mRNA polyplexes were formulated as previously described.[40],[41] In short, two separate stock solutions of mRNA and peptide were prepared in MQ and simultaneously dispensed with electronically dispensing pipettes (E4 Electronic Pipette, LTS E4-100XLS+, Mettler-Toledo Rainin, LLC, Oakland, CA, USA) at a flow rate of 11 mL min^–1. All polyplexes were formed at a concentration of at least 10-fold the final intended concentration for transfections.
(§2) One day before mRNA transfections, 10 000 MC3T3 cells in 100 μL were seeded in 96-well plates (Greiner Bio-One Cat. No. 655180) or 20 000 cells in 200 μL in μ-slide eight-well chambers (Ibidi, Gräfelfing, Germany). These seeding densities ensured confluency between ∼70 and 90% on the day of transfection. mRNA transfections were performed by removing the complete medium from the wells and replacing it with mRNA nanoparticles diluted 10 times in complete medium. Cells were exposed to mRNA nanoparticles for 2 h at 37 °C, 5% CO2, in a humidified incubator. For some experiments, cells were stained with 200 μL of 1 μM CellTrace yellow (Thermo Fisher Scientific, Cat. No. C34567) directly after the nanoparticle incubation, according to the manufacturer’s instructions. Regardless of the tested N/P ratio or type of nanoparticle, mRNA inputs were equalized across conditions, resulting in 107 ng/well for luciferase assays in 96-well plate formats and 214 ng/well for confocal microscopy experiments. […] For untreated controls, complete cell culture medium was added and refreshed as often as in the experimental conditions.
Before microscopy, complete medium containing phenol red was replaced with an equal volume of phenol red-free and HEPES-formulated Opti-MEM (Gibco). The uptake of Cy5-eGFP mRNA-formulated nanoparticles was assessed 2 h post-transfection, and eGFP expression was assessed 24 h post-transfection. […] All laser lines were generated by a white-light laser, and emissions were detected with hybrid detectors. […]

[2] = test system: HeLa cells; test: Luciferase expression after SecNLuc mRNA transfection (Nano-Glo); assay type: cell-based, human
[3] = Heparin-mediated polyplex decomplexation assay (QuantiFluor RNA); assay type: physicochemical; conditions: N/P 1 and 3, low or high heparin amounts; Figure S8
Experimental: For testing the stability of mRNA polyplexes, a polyanion decomplexation assay, mediated by the polyanionic heparin (heparin sodium salt from porcine intestinal mucosa, Cat. No. H3149-100 KU, Sigma-Aldrich) was performed. mRNA polyplexes were freshly prepared with uncapped SecNLuc mRNA (RIBOPRO), as described in the section mRNA Nanoparticle Formation. Following polyplex formation, all samples were incubated for at least 30 min at room temperature. Importantly, separate stock solutions of heparin were made to ensure an equal volume across conditions regardless of heparin concentration. For decomplexation, 5 μL of 10× polyplexes were diluted in RNase-free TE-buffer at pH 7.5 (Promega, Cat. No. E260A) supplemented with an equal volume of heparin across conditions to a total volume of 50 μL in a 384-well plate (Greiner Bio-One, Cat. No. 781101). All samples were quickly spun down before incubation at 37 °C for 90 min. The QuantiFluor RNA System (Promega, Cat. No. E3310) was used with a 1:2000 dilution of RNA-binding dye for all tested conditions to detect released mRNA. For quantification, a calibration curve with uncapped SecNLuc mRNA was made, spanning from 0.19 ng mRNA/well to 50 ng mRNA/well. For detection of released mRNA, the dye was excited at 485 nm, and emission was collected at 535 nm using the VICTOR X3Multilabel Plate Reader (PerkinElmer)
Data analysis was performed using GraphPad Prism (GraphPad Software, version 8.4.2, San Diego, CA, USA). Data are presented as means ± standard deviation (SD) unless stated otherwise. Means were calculated by first averaging the technical replicates, for which outliers were identified using Grubbs’ test, followed by averaging the biological replicates. Before statistical analysis, all data were checked for normal distribution with a Shapiro–Wilk test. Statistical analysis was done using one- or two-way analysis of variance (ANOVA). Multiple comparisons were corrected using Tukey’s test with 95% confidence intervals. For the mRNA standard curve used in heparin decomplexation assays, the coefficient of variation was determined both in the standards and in samples and was ≤20%. The standard curve was fitted using a sigmoidal four-parameter logistic curve. The standard curve was back fitted with ±10% accuracy to verify the correctness of the fit. The signals from samples were blanked with the appropriate solution (TE buffer) before calculating interpolations. p > 0.05 was considered not significant, and p values were reported using the GraphPad Prism style (*p ≤ 0.05, **p ≤ 0.01, ***p ≤ 0.001, and ****p ≤ 0.0001).

[4] = test system: MC3T3 cells; test: Luciferase expression after SecNLuc mRNA transfection (Nano-Glo); assay type: cell-based, murine
Experimental: as §1
One day before mRNA transfections, 10 000 MC3T3 cells in 100 μL were seeded in 96-well plates (Greiner Bio-One Cat. No. 655180) or 20 000 cells in 200 μL in μ-slide eight-well chambers (Ibidi, Gräfelfing, Germany). These seeding densities ensured confluency between ∼70 and 90% on the day of transfection. mRNA transfections were performed by removing the complete medium from the wells and replacing it with mRNA nanoparticles diluted 10 times in complete medium. Cells were exposed to mRNA nanoparticles for 2 h at 37 °C, 5% CO2, in a humidified incubator. […]
The extent of luciferase production was determined using the Nano-Glo Luciferase Assay (Promega, Madison, WI, USA, Cat No. N1130) according to the manufacturer’s instructions. […] Luminescence was measured after briefly shaking the plate using the VICTOR X3Multilabel Plate Reader (PerkinElmer, Waltham, MA, USA).

[5] = test system: MC3T3 cells; test: Cellular uptake of Cy5-eGFP mRNA polyplexes, live-cell confocal microscopy; assay type: cell-based, murine
Experimental: as §1, §2
Before microscopy, complete medium containing phenol red was replaced with an equal volume of phenol red-free and HEPES-formulated Opti-MEM (Gibco). The uptake of Cy5-eGFP mRNA-formulated nanoparticles was assessed 2 h post-transfection, and eGFP expression was assessed 24 h post-transfection. Live-cell imaging was performed using a Leica TCS SP8 SMD (Leica Microsystems, Mannheim, Germany) with an HC PL APO CS2 63×/1.20 water objective and a temperature-controlled stage at 36.5 °C. eGFP was excited at 488 nm (emission: 500–550 nm). CellTrace yellow was excited at 555 nm (emission: 570–620 nm), and Cy5 was excited at 633 nm (emission: 650–690 nm). All laser lines were generated by a white-light laser, and emissions were detected with hybrid detectors. All channels were sequentially acquired to avoid crosstalk at a bit depth of 12. Except for the LMM eGFP conditions (reduced gain), equal acquisition settings (pixel size, pinhole, laser power, and gain) per fluorophore were used within the experiments.
Quantification of the Cy5 fluorescence was performed as previously described.[59],[60] In brief, five separate images (unless stated otherwise) containing approximately 10 cells per image were analyzed using ImageJ (version 1.53f51). A square mask of 184.52 μm^2 was used to quantify the raw integrated density (sum of all pixels in a region of interest). Importantly, cell confluencies ranged from ∼80–95%, ensuring minimal impact of cell density on total fluorescence values. The brightness and contrast of the images were adjusted to find a cell-free region to determine background fluorescence. Then, a circle was drawn to measure the background fluorescence. To obtain the corrected total cellular fluorescence (CTCF), the area (in pixels) was multiplied by the mean gray value of the background and subsequently subtracted from the raw integrated density.

[6] = Dynamic light scattering of peptide-mRNA nanoparticles; assay type: physicochemical; conditions: hLF-v1 mRNA polyplexes, context: upon polymerization; N/P not printed at the place; DLS 25 °C, no serum
Experimental: as §1
The hydrodynamic diameter of the nanoparticles was measured at 25 °C by dynamic light scattering (DLS) using a Zetasizer Nano ZS (Malvern Instruments, Worcestershire, UK) equipped with a 4 mW He–Ne laser (633 nm) with a backscatter detection angle of 173°. At least 40 μL of 10 times concentrated nanoparticle solution was measured in a UV-cuvette (BrandTech Scientific, Essex, CT, USA, Cat. No. 759200).

Sequence | eGFP protein expression [1] | luciferase expression ([2]; N/P 3, compared to untreated) | luciferase expression higher than PF14 ([2]; N/P 5) [%] | difference in heparin decomplexation [3] | luciferase expression as fraction of PF14-induced expression ([4]; MC3T3, N/P 5) | effect of oligomerization on uptake ([5]; 2 h incubation, Cy5-labeled mRNA, polymerized vs monomeric, Figure 5, Figure S5) | uptake of Cy5-labeled mRNA polyplexes of amphipathic hLF variants ([5]; 2 h incubation, live-cell confocal microscopy, serum present, Figure 5, four independent experiments) | monodisperse particle size by DLS [6] [nm] | ratio of Poly hLF-x vs Mono-hLF-x, Corrected Total Cellular Fluorescence (Cy5) ([5]; Cy5-eGFP mRNA polyplexes, 2 h post-transfection, n = 5 fields of view per condition) [x] | cellular uptake of Cy5-labeled eGFP mRNA ([5]; N/P 3 polyplexes (LMM lipoplexes), 2 h post-transfection, complete medium with 10% FBS, confocal, Figure 1, five independent experiments) | luciferase activity ([4]; MC3T3, independent of the N/P ratio (3 or 5))
KCFQWLRNLRKVRALLVSCLKR (disulfide 2-19 (inferred)) [poly hLF-v1, polymeric hLF-v1] | successful delivery | significant luciferase expression | ~5 | no difference | approximately half |  |  |  |  |  | 
KCFQWLRNLRKVRALLVSCLKR [hLF-v1, amphipathic hLF variant with PF14 motifs and the same cationic amino acids as hLF-WT] | fewer cells were positive for eGFP expression than for PF14 |  |  |  |  | no benefit for uptake | performed the worst and tended to aggregate upon polymerization | 72 ± 2.1 |  |  | 
KCFQWQRNMRKVRGPPVSCIKR [hLF-WT] | no expression |  |  |  |  |  |  |  | 2.33 | only little uptake | no activity
